Experiments:
Mus musculus [1] = assay: Body weight change of test animals to that of control was determined after injection at 50 mg/kg intraperitoneally in CD2F1 mice; format: functional; details: route intraperitoneal
Mus musculus [2] = assay: Toxicity day survivors was determined by the ratio of animals survived to that of test animals at 6.25 mg/kg intraperitoneally in CD2F1 mice; 6/6; format: organism-based; set-up: dose 6.25 mg/kg, route intraperitoneal; details: in vivo, ip
Mus musculus [3] = assay: Body weight change of test animals to that of control was determined after injection at 12.5 mg/kg intraperitoneally in CD2F1 mice; format: functional; details: route intraperitoneal
Mus musculus [4] = assay: Body weight change of test animals to that of control was determined after injection at 3.12 mg/kg intraperitoneally in CD2F1 mice; format: functional; details: route intraperitoneal
Mus musculus [5] = assay: Ratio of treated to that of untreated tumor-bearing control animals at 1.56 mg/kg intraperitoneally in CD2F1 mice was determined; format: functional; details: route intraperitoneal
Mus musculus [6] = assay: Toxicity day survivors was determined by the ratio of animals survived to that of test animals at 1.56 mg/kg intraperitoneally in CD2F1 mice; 6/6; format: organism-based; set-up: dose 1.56 mg/kg, route intraperitoneal; details: in vivo, ip
Mus musculus [7] = assay: Toxicity day survivors was determined by the ratio of animals survived to that of test animals at 25 mg/kg intraperitoneally in CD2F1 mice; 4/6; format: organism-based; set-up: dose 25 mg/kg, route intraperitoneal; details: in vivo, ip
Mus musculus [8] = assay: Net log cell kill was determined after injecting 12.5 mg/kg intraperitoneally in CD2F1 mice; format: functional; details: route intraperitoneal
Mus musculus [9] = assay: Ratio of treated to that of untreated tumor-bearing control animals at 12.5 mg/kg intraperitoneally in CD2F1 mice was determined; format: functional; details: route intraperitoneal
Mus musculus [10] = assay: Toxicity day survivors was determined by the ratio of animals survived to that of test animals at 50 mg/kg intraperitoneally in CD2F1 mice; 3/6; format: organism-based; set-up: dose 50 mg/kg, route intraperitoneal; details: in vivo, ip
Mus musculus [11] = assay: Toxicity day survivors was determined by the ratio of animals survived to that of test animals at 100 mg/kg intraperitoneally in CD2F1 mice; 0/6; format: organism-based; set-up: dose 100 mg/kg, route intraperitoneal; details: in vivo, ip
Mus musculus [12] = assay: Toxicity day survivors was determined by the ratio of animals survived to that of test animals at 12.5 mg/kg intraperitoneally in CD2F1 mice; 6/6; format: organism-based; set-up: dose 12.5 mg/kg, route intraperitoneal; details: in vivo, ip
Mus musculus [13] = assay: Net log cell kill was determined after injecting 6.25 mg/kg intraperitoneally in CD2F1 mice; format: functional; details: route intraperitoneal
Mus musculus [14] = assay: Ratio of treated to that of untreated tumor-bearing control animals at 3.12 mg/kg intraperitoneally in CD2F1 mice was determined; format: functional; details: route intraperitoneal
Mus musculus [15] = assay: Body weight change of test animals to that of control was determined after injection at 25 mg/kg intraperitoneally in CD2F1 mice; format: functional; details: route intraperitoneal
Mus musculus [16] = assay: Body weight change of test animals to that of control was determined after injection at 1.56 mg/kg intraperitoneally in CD2F1 mice; format: functional; details: route intraperitoneal
Mus musculus [17] = assay: Body weight change of test animals to that of control was determined after injection at 6.25 mg/kg intraperitoneally in CD2F1 mice; format: functional; details: route intraperitoneal
Mus musculus [18] = assay: Ratio of treated to that of untreated tumor-bearing control animals at 6.25 mg/kg intraperitoneally in CD2F1 mice was determined; format: functional; details: route intraperitoneal
Mus musculus [19] = assay: Toxicity day survivors was determined by the ratio of animals survived to that of test animals at 3.12 mg/kg intraperitoneally in CD2F1 mice; 6/6; format: organism-based; set-up: dose 3.12 mg/kg, route intraperitoneal; details: in vivo, ip
Mus musculus [20] = assay: Net log cell kill was determined after injecting 3.12 mg/kg intraperitoneally in CD2F1 mice; format: functional; details: route intraperitoneal
Mus musculus [21] = assay: Net log cell kill was determined after injecting 1.56 mg/kg intraperitoneally in CD2F1 mice; format: functional; details: route intraperitoneal
Mus musculus [22] = assay: Toxicity day survivors was determined by the ratio of animals survived to that of test animals at 25 mg/kg intraperitoneally in CD2F1 mice; 6/6; format: organism-based; set-up: dose 25 mg/kg, route intraperitoneal; details: in vivo, ip
Mus musculus [23] = assay: Toxicity day survivors was determined by the ratio of animals survived to that of test animals at 100 mg/kg intraperitoneally in CD2F1 mice; 2/6; format: organism-based; set-up: dose 100 mg/kg, route intraperitoneal; details: in vivo, ip
Mus musculus [24] = assay: Body weight change of test animals to that of control was determined after injection at 100 mg/kg intraperitoneally in CD2F1 mice; format: functional; details: route intraperitoneal
Mus musculus [25] = assay: Toxicity day survivors was determined by the ratio of animals survived to that of test animals at 50 mg/kg intraperitoneally in CD2F1 mice; 6/6; format: organism-based; set-up: dose 50 mg/kg, route intraperitoneal; details: in vivo, ip
Mus musculus [26] = assay: Ratio of treated to that of untreated tumor-bearing control animals at 25 mg/kg intraperitoneally in CD2F1 mice was determined; format: functional; details: route intraperitoneal
Mus musculus [27] = assay: Net log cell kill was determined after injecting 50 mg/kg intraperitoneally in CD2F1 mice; format: functional; details: route intraperitoneal
Mus musculus [28] = assay: Net log cell kill was determined after injecting 25 mg/kg intraperitoneally in CD2F1 mice; format: functional; details: route intraperitoneal
Mus musculus [29] = assay: Ratio of treated to that of untreated tumor-bearing control animals at 50 mg/kg intraperitoneally in CD2F1 mice was determined; format: functional; details: route intraperitoneal
Mus musculus [30] = assay: Toxicity day survivors was determined by the ratio of animals survived to that of test animals at 240 mg/kg intraperitoneally in CD2F1 mice; 6/6; format: organism-based; set-up: dose 240 mg/kg, route intraperitoneal; details: in vivo, ip
Mus musculus [31] = assay: Body weight change of test animals to that of control was determined after injection at 60 mg/kg intraperitoneally in CD2F1 mice; format: functional; details: route intraperitoneal
Mus musculus [32] = assay: Body weight change of test animals to that of control was determined after injection at 240 mg/kg intraperitoneally in CD2F1 mice; format: functional; details: route intraperitoneal
Mus musculus [33] = assay: Net log cell kill was determined after injecting 60 mg/kg intraperitoneally in CD2F1 mice; format: functional; details: route intraperitoneal
Mus musculus [34] = assay: Ratio of treated to that of untreated tumor-bearing control animals at 60 mg/kg intraperitoneally in CD2F1 mice was determined; format: functional; details: route intraperitoneal
Mus musculus [35] = assay: Toxicity day survivors was determined by the ratio of animals survived to that of test animals at 120 mg/kg intraperitoneally in CD2F1 mice; 6/6; format: organism-based; set-up: dose 120 mg/kg, route intraperitoneal; details: in vivo, ip
Mus musculus [36] = assay: Net log cell kill was determined after injecting 240 mg/kg intraperitoneally in CD2F1 mice; format: functional; details: route intraperitoneal
Mus musculus [37] = assay: Body weight change of test animals to that of control was determined after injection at 120 mg/kg intraperitoneally in CD2F1 mice; format: functional; details: route intraperitoneal
Mus musculus [38] = assay: Body weight change of test animals to that of control was determined after injection at 30 mg/kg intraperitoneally in CD2F1 mice; format: functional; details: route intraperitoneal
Mus musculus [39] = assay: Ratio of treated to that of untreated tumor-bearing control animals at 30 mg/kg intraperitoneally in CD2F1 mice was determined; format: functional; details: route intraperitoneal
Mus musculus [40] = assay: Ratio of treated to that of untreated tumor-bearing control animals at 120 mg/kg intraperitoneally in CD2F1 mice was determined; format: functional; details: route intraperitoneal
Mus musculus [41] = assay: Toxicity day survivors was determined by the ratio of animals survived to that of test animals at 60 mg/kg intraperitoneally in CD2F1 mice; 6/6; format: organism-based; set-up: dose 60 mg/kg, route intraperitoneal; details: in vivo, ip
Mus musculus [42] = assay: Toxicity day survivors was determined by the ratio of animals survived to that of test animals at 30 mg/kg intraperitoneally in CD2F1 mice; 6/6; format: organism-based; set-up: dose 30 mg/kg, route intraperitoneal; details: in vivo, ip
Mus musculus [43] = assay: Net log cell kill was determined after injecting 30 mg/kg intraperitoneally in CD2F1 mice; format: functional; details: route intraperitoneal
Mus musculus [44] = assay: Net log cell kill was determined after injecting 120 mg/kg intraperitoneally in CD2F1 mice; format: functional; details: route intraperitoneal
Mus musculus [45] = assay: Ratio of treated to that of untreated tumor-bearing control animals at 240 mg/kg intraperitoneally in CD2F1 mice was determined; format: functional; details: route intraperitoneal

SMILES: CC(C)NC(=O)OCc1cn2c(c1COC(=O)NC(C)C)-c1ccccc1CC2
- T-C (Mus musculus [1]): -3.5 g
- TDS (Mus musculus [2]): 6
- T-C (Mus musculus [3]): -3.1 g
- T-C (Mus musculus [4]): -0.5 g
- T/C (Mus musculus [5]): 130%
- TDS (Mus musculus [6]): 6
- TDS (Mus musculus [7]): 4
- KE (Mus musculus [8]): 3.84
- T/C (Mus musculus [9]): 188%
- TDS (Mus musculus [10]): 3
- TDS (Mus musculus [11]): 0
- TDS (Mus musculus [12]): 6
- KE (Mus musculus [13]): 1.6
- T/C (Mus musculus [14]): 136%
- T-C (Mus musculus [15]): -4.2 g
- T-C (Mus musculus [16]): -0.3 g
- T-C (Mus musculus [17]): -0.8 g
- T/C (Mus musculus [18]): 157%
- TDS (Mus musculus [19]): 6
- KE (Mus musculus [20]): 0
- KE (Mus musculus [21]): -0.38

SMILES: Cc1c(COC(=O)NC(C)C)c(COC(=O)NC(C)C)c2n1CCc1ccccc1-2
- T-C (Mus musculus [1]): -4 g
- TDS (Mus musculus [2]): 6
- T-C (Mus musculus [3]): -2.6 g
- TDS (Mus musculus [22]): 6
- TDS (Mus musculus [23]): 2
- T-C (Mus musculus [24]): -3.8 g
- KE (Mus musculus [8]): 1.6
- T/C (Mus musculus [9]): 157%
- TDS (Mus musculus [25]): 6
- T/C (Mus musculus [26]): 166%
- TDS (Mus musculus [12]): 6
- KE (Mus musculus [13]): 1.28
- T-C (Mus musculus [15]): -4.2 g
- KE (Mus musculus [27]): 2.82
- KE (Mus musculus [28]): 2.24
- T-C (Mus musculus [17]): -0.9 g
- T/C (Mus musculus [18]): 153%
- T/C (Mus musculus [29]): 174%

SMILES: Cc1c(COC(=O)NC(C)C)c(COC(=O)NC(C)C)c2ccc3ccccc3n12
- TDS (Mus musculus [30]): 6
- T-C (Mus musculus [31]): -1.1 g
- T-C (Mus musculus [32]): -3.5 g
- KE (Mus musculus [33]): 0.47
- T/C (Mus musculus [34]): 139%
- TDS (Mus musculus [35]): 6
- KE (Mus musculus [36]): -0.5
- T-C (Mus musculus [37]): -1.8 g
- T-C (Mus musculus [38]): -0.5 g
- T/C (Mus musculus [39]): 135%
- T/C (Mus musculus [40]): 106%
- TDS (Mus musculus [41]): 6
- TDS (Mus musculus [42]): 6
- KE (Mus musculus [43]): -0.53
- KE (Mus musculus [44]): -1.5
- T/C (Mus musculus [45]): 129%

— ChEMBL document CHEMBL1124001, “Synthesis and antileukemic activity of bis[[(carbamoyl)oxy]methyl]- substituted pyrrolo[2,1-a]isoquinolines, pyrrolo[1,2-a]quinolines, pyrrolo[2,1-a]isobenzazepines, and pyrrolo[1,2-a]benzazepines” (J Med Chem, 1988)
